In US9630977B2, “Cephalosporin derivatives and pharmaceutical compositions thereof” (Legochem Biosciences, Inc., priority 2011, dated 2017):
Values after ≈ are worked out from the molar mass of the structure shown.

tested on: A. baumannii 46; assay: In vitro antibacterial activity test (broth microdilution); assay type: cell-based; details: A. baumannii 46
Method: (§1) To evaluate antibacterial activity of each of the compounds of Examples 1 to 68, in vitro antibacterial activity test was performed.
(§2) The in vitro antibacterial activity was evaluated by measuring MIC90 (ug/mL) of each of the compounds of Examples 1 to 68, which is defined as the lowest concentration of an antibiotic that will inhibit the visible growth of 90% of microorganisms after incubation as compared with a control group to which the antibiotic is not treated. MIC90 values were measured by the broth microdilution method developed by the Clinical and Laboratory Standards Institute (CLSI) (see CLSI M7-A5, Methods for Dilution Antimicrobial Susceptibility Test for Bacteria that Grow Aerobically-Fifth Edition (2000): CLSI, Villanova, Pa.).
(§3) In vitro antibacterial activity was measured with respect to the following 19 clinical isolates: M. catarrhalis; P. aeruginosa (5 strains); K. pneumoniae (6 strains); A. baumannii (3 strains); E. coli (2 strains); A. calcoaceticus; and E. cloacae.
(§4) Test compounds each (the cephalosporin derivative compounds prepared in Examples 1 to 68) were dissolved in DMSO at the concentration of 10,240 ug/mL, were diluted by two fold with DMSO, and then were diluted by twenty fold with sterilized distilled water. The final concentration in the antibacterial activity test was in the range of […] to 128 ug/mL, and the final concentration of DMSO used as an adjuvant was 2.5% (V/V).

Structure (SMILES)	MIC90 [µg/mL]
CC(C)(O/N=C(\C(=O)N[C@@H]1C(=O)N2C(C(=O)[O-])=C(/C=C/C[n+]3cnc(N)c(NCCNC(=O)c4cc(=O)c(O)cn4O)c3)CSC12)c1csc(N)n1)C(=O)O (stereo partly shown) [Compound 10]	8 (≈ 10 µM)

tested on: A. baumannii 49; assay: as above; assay type: cell-based; details: A. baumannii 49
Method: as §1, §2, §3, §4

Structure (SMILES)	MIC90 [µg/mL]
CC(C)(O/N=C(\C(=O)N[C@@H]1C(=O)N2C(C(=O)[O-])=C(/C=C/C[n+]3cnc(N)c(NCCNC(=O)c4cc(=O)c(O)cn4O)c3)CSC12)c1csc(N)n1)C(=O)O (stereo partly shown) [Compound 10]	>128

tested on: A. baumannii 52; assay: as above; assay type: cell-based; details: A. baumannii 52
Method: as §1, §2, §3, §4

Structure (SMILES)	MIC90 [µg/mL]
CC(C)(O/N=C(\C(=O)N[C@@H]1C(=O)N2C(C(=O)[O-])=C(/C=C/C[n+]3cnc(N)c(NCCNC(=O)c4cc(=O)c(O)cn4O)c3)CSC12)c1csc(N)n1)C(=O)O (stereo partly shown) [Compound 10]	>128

tested on: A. calcoaceticus ATCC15473; assay: as above; assay type: cell-based; details: A. calcoaceticus ATCC15473
Method: as §1, §2, §3, §4

Structure (SMILES)	MIC90 [µg/mL]
CC(C)(O/N=C(\C(=O)N[C@@H]1C(=O)N2C(C(=O)[O-])=C(/C=C/C[n+]3cnc(N)c(NCCNC(=O)c4cc(=O)c(O)cn4O)c3)CSC12)c1csc(N)n1)C(=O)O (stereo partly shown) [Compound 10]	2 (≈ 2.5 µM)

tested on: E. cloacae β19; assay: as above; assay type: cell-based; details: not given
Method: as §1, §2, §3, §4

Structure (SMILES)	MIC90 [µg/mL]
CC(C)(O/N=C(\C(=O)N[C@@H]1C(=O)N2C(C(=O)[O-])=C(/C=C/C[n+]3cnc(N)c(NCCNC(=O)c4cc(=O)c(O)cn4O)c3)CSC12)c1csc(N)n1)C(=O)O (stereo partly shown) [Compound 10]	0.5 (≈ 0.625 µM)

tested on: E. coli AG100; assay: as above; assay type: cell-based; details: E. coli AG100
Method: as §1, §2, §3, §4

Structure (SMILES)	MIC90 [µg/mL]
CC(C)(O/N=C(\C(=O)N[C@@H]1C(=O)N2C(C(=O)[O-])=C(/C=C/C[n+]3cnc(N)c(NCCNC(=O)c4cc(=O)c(O)cn4O)c3)CSC12)c1csc(N)n1)C(=O)O (stereo partly shown) [Compound 10]	0.125 (≈ 0.156 µM)

tested on: E. coli β4; assay: as above; assay type: cell-based; details: not given
Method: as §1, §2, §3, §4

Structure (SMILES)	MIC90 [µg/mL]
CC(C)(O/N=C(\C(=O)N[C@@H]1C(=O)N2C(C(=O)[O-])=C(/C=C/C[n+]3cnc(N)c(NCCNC(=O)c4cc(=O)c(O)cn4O)c3)CSC12)c1csc(N)n1)C(=O)O (stereo partly shown) [Compound 10]	0.5 (≈ 0.625 µM)

tested on: K. pneumoniae 2011E; assay: as above; assay type: cell-based; details: K. pneumoniae 2011E
Method: as §1, §2, §3, §4

Structure (SMILES)	MIC90 [µg/mL]
CC(C)(O/N=C(\C(=O)N[C@@H]1C(=O)N2C(C(=O)[O-])=C(/C=C/C[n+]3cnc(N)c(NCCNC(=O)c4cc(=O)c(O)cn4O)c3)CSC12)c1csc(N)n1)C(=O)O (stereo partly shown) [Compound 10]	2 (≈ 2.5 µM)

tested on: K. pneumoniae β10; assay: as above; assay type: cell-based; details: K. pneumoniae β10
Method: as §1, §2, §3, §4

Structure (SMILES)	MIC90 [µg/mL]
CC(C)(O/N=C(\C(=O)N[C@@H]1C(=O)N2C(C(=O)[O-])=C(/C=C/C[n+]3cnc(N)c(NCCNC(=O)c4cc(=O)c(O)cn4O)c3)CSC12)c1csc(N)n1)C(=O)O (stereo partly shown) [Compound 10]	<0.0625

tested on: K. pneumoniae β11; assay: as above; assay type: cell-based; details: K. pneumoniae β11
Method: as §1, §2, §3, §4

Structure (SMILES)	MIC90 [µg/mL]
CC(C)(O/N=C(\C(=O)N[C@@H]1C(=O)N2C(C(=O)[O-])=C(/C=C/C[n+]3cnc(N)c(NCCNC(=O)c4cc(=O)c(O)cn4O)c3)CSC12)c1csc(N)n1)C(=O)O (stereo partly shown) [Compound 10]	32 (≈ 40 µM)

tested on: K. pneumoniae β13; assay: as above; assay type: cell-based; details: K. pneumoniae β13
Method: as §1, §2, §3, §4

Structure (SMILES)	MIC90 [µg/mL]
CC(C)(O/N=C(\C(=O)N[C@@H]1C(=O)N2C(C(=O)[O-])=C(/C=C/C[n+]3cnc(N)c(NCCNC(=O)c4cc(=O)c(O)cn4O)c3)CSC12)c1csc(N)n1)C(=O)O (stereo partly shown) [Compound 10]	2 (≈ 2.5 µM)

tested on: K. pneumoniae β14; assay: as above; assay type: cell-based; details: not given
Method: as §1, §2, §3, §4

Structure (SMILES)	MIC90 [µg/mL]
CC(C)(O/N=C(\C(=O)N[C@@H]1C(=O)N2C(C(=O)[O-])=C(/C=C/C[n+]3cnc(N)c(NCCNC(=O)c4cc(=O)c(O)cn4O)c3)CSC12)c1csc(N)n1)C(=O)O (stereo partly shown) [Compound 10]	8 (≈ 10 µM)

tested on: K. pneumoniae β9; assay: as above; assay type: cell-based; details: K. pneumoniae β9
Method: as §1, §2, §3, §4

Structure (SMILES)	MIC90 [µg/mL]
CC(C)(O/N=C(\C(=O)N[C@@H]1C(=O)N2C(C(=O)[O-])=C(/C=C/C[n+]3cnc(N)c(NCCNC(=O)c4cc(=O)c(O)cn4O)c3)CSC12)c1csc(N)n1)C(=O)O (stereo partly shown) [Compound 10]	0.25 (≈ 0.313 µM)

tested on: M. catarrhalis 2524; assay: as above; assay type: cell-based; details: Moraxella catarrhalis; M. catarrhalis 2524; read-out: MIC90
Method: as §1, §2, §3, §4

Structure (SMILES)	MIC90 [µg/mL]
CC(C)(O/N=C(\C(=O)N[C@@H]1C(=O)N2C(C(=O)[O-])=C(/C=C/C[n+]3cnc(N)c(NCCNC(=O)c4cc(=O)c(O)cn4O)c3)CSC12)c1csc(N)n1)C(=O)O (stereo partly shown) [Compound 10]	0.5 (≈ 0.625 µM)

tested on: P. aeruginosa 1912E; assay: as above; assay type: cell-based; details: not given
Method: as §1, §2, §3, §4

Structure (SMILES)	MIC90 [µg/mL]
CC(C)(O/N=C(\C(=O)N[C@@H]1C(=O)N2C(C(=O)[O-])=C(/C=C/C[n+]3cnc(N)c(NCCNC(=O)c4cc(=O)c(O)cn4O)c3)CSC12)c1csc(N)n1)C(=O)O (stereo partly shown) [Compound 10]	4 (≈ 5 µM)

tested on: P. aeruginosa 37; assay: as above; assay type: cell-based; details: P. aeruginosa 37
Method: as §1, §2, §3, §4

Structure (SMILES)	MIC90 [µg/mL]
CC(C)(O/N=C(\C(=O)N[C@@H]1C(=O)N2C(C(=O)[O-])=C(/C=C/C[n+]3cnc(N)c(NCCNC(=O)c4cc(=O)c(O)cn4O)c3)CSC12)c1csc(N)n1)C(=O)O (stereo partly shown) [Compound 10]	2 (≈ 2.5 µM)

tested on: P. aeruginosa 40; assay: as above; assay type: cell-based; details: P. aeruginosa 40
Method: as §1, §2, §3, §4

Structure (SMILES)	MIC90 [µg/mL]
CC(C)(O/N=C(\C(=O)N[C@@H]1C(=O)N2C(C(=O)[O-])=C(/C=C/C[n+]3cnc(N)c(NCCNC(=O)c4cc(=O)c(O)cn4O)c3)CSC12)c1csc(N)n1)C(=O)O (stereo partly shown) [Compound 10]	1 (≈ 1.25 µM)

tested on: P. aeruginosa 43; assay: as above; assay type: cell-based; details: P. aeruginosa 43
Method: as §1, §2, §3, §4

Structure (SMILES)	MIC90 [µg/mL]
CC(C)(O/N=C(\C(=O)N[C@@H]1C(=O)N2C(C(=O)[O-])=C(/C=C/C[n+]3cnc(N)c(NCCNC(=O)c4cc(=O)c(O)cn4O)c3)CSC12)c1csc(N)n1)C(=O)O (stereo partly shown) [Compound 10]	1 (≈ 1.25 µM)

tested on: P. aeruginosa 6065Y; assay: as above; assay type: cell-based; details: Pseudomonas aeruginosa, read-out: MIC90
Method: as §1, §2, §3, §4

Structure (SMILES)	MIC90 [µg/mL]
CC(C)(O/N=C(\C(=O)N[C@@H]1C(=O)N2C(C(=O)[O-])=C(/C=C/C[n+]3cnc(N)c(NCCNC(=O)c4cc(=O)c(O)cn4O)c3)CSC12)c1csc(N)n1)C(=O)O (stereo partly shown) [Compound 10]	4 (≈ 5 µM)
